Data: paper PMC12119673, “Apoptotic cell death induced by copper (II), manganese (II) and silver (I) complexes containing bridging dicarboxylate and 1,10-phenanthroline ligands: one of the multi-modes of anticancer activity?” (Biometals, 2025)

Assays:
Type in all cases: cell-based, human
[1] = system: caspase-3/7 in MCF-7 cells; assay: Caspase 3/7 expression, FLICA (FAM-DEVD-FMK) flow cytometry; conditions: MCF-7, IC25 concentration, 24 h
Experimental: The expression of caspase-3/7 in MCF-7 and MCF-12A cells was determined using the VybrantTM FAM™ Caspase-3 and Caspase-7 Assay Kit (Cat# V35118) (Thermo Fisher Scientific, Ireland). Cells were seeded at a density of 1 × 10^5 in T25 flasks and incubated in routine conditions for 24 h. […] Post-exposure, the cells were harvested for staining.
(§1) Flow cytometry data analysis was performed with the CytExpert package (Ver. 2.4) (Beckman Coulter, USA) and Microsoft^Ⓡ Excel (USA). The mean MFI and percentage cells were calculated using these packages, followed by one-way ANOVA analysis with post hoc Bonferroni correction using GraphPad Prism (Ver. 9.4) (GraphPad, USA).
The expression of caspase-3/7 was analysed in MCF-7 and MCF-12A cells using fluorescent labelled inhibitors of caspase (FLICA): FAM-DEVD-FMK. […] Following the apoptosis induction study, it was of interest to determine whether the complexes were stimulating the executioner caspases triggering the irreversible proteolytic degradation of cells, culminating in cell death. […] These three complexes were selected based on their structural similarities, while incorporating alternative metal centres.

MCF-7 cells = assay: Apoptosis induction, Annexin V / propidium iodide flow cytometry; conditions: MCF-7, IC25 concentration, 24 h
Experimental: MCF-7 and MCF-12A cells were seeded at a density of 1 × 10^5 in T25 flasks (Sarstedt, Germany) and incubated for 24 h at 37 °C with 5% CO2 allowing for attachment. Post -incubation, the media was removed, cells were washed with sterile PBS and then treated using IC25 concentrations established from the in vitro cytotoxicity screen. […] After the exposure period, the cells were enzymatically detached using trypsin, collected and centrifuged at 1200RPM for 10 min. The cells were then washed with PBS, re-centrifuged and resuspended in 1 ml of annexin binding buffer. Prior to staining, the concentration of each sample was adjusted to 1 × 10^6 cells/ml. The cells were stained with 1 μl of propidium iodide (PI) (Sigma, Ireland) (Cat #P4864) and 2 μl of Annexin V (Thermo Fisher Scientific, Ireland) (Cat #A13199). The cells were incubated at room temperature for 15 min prior to analysis. The staining process was completed in the dark to eliminate interference with photo-sensitive reagents. Immediately prior to analysis by flow cytometry, 400 μl of annexin binding buffer was added to each sample. Samples were analysed using a (CytoFLEX) (Beckman Coulter, USA). The AV/PI assay was completed three independent times.
as §1
The induction of apoptosis was analysed in MCF-7 and MCF-12A cells using the Annexin V and Propidium Iodide assay with flow cytometry. […] The assay allows for the differentiation of viable, apoptotic and necrotic cells based on the selective staining of Annexin V and PI. Annexin V binds to phosphatidylserines externalised to the outer leaflet of the plasma membrane during apoptosis; and PI is a membrane impermeable dye that binds to DNA of necrotic cells with compromised plasma membranes.

MCF-12A cells = assay: Detection of reactive oxygen species with H2DCFDA; conditions: 0.78 μM to 50 μM, over a 6-h period, fold-change compared to the negative control
Experimental: The production of reactive oxygen species (ROS) was detected in MCF-7 and MCF12A cells using the cell-permeant dye 2',7'- dichlorodihydrofluorescein diacetate (H2DCFDA) (Thermo Fisher Scientific, Ireland) (Cat# D399). Cells were seeded at a density of 1 × 10^4 in 96 well plates and incubated for 24 h. Post-incubation, the media was removed, and cells were washed with PBS. A 10 μM DCFH-DA working solution was prepared using cell culture media, and the cells were incubated with 100 μl of the solution in the dark for 30 min. […] Fluorescent measurements were recorded at 15 min, 30 min, 1 h, and subsequently every hour up to 6 h using a Varioskan Lux™ multimode microplate reader (Thermo Fisher Scientific, Ireland) at an excitation wavelength of 495 nm and emission of 527 nm. The assay was repeated three independent times, using three replicates per plate.
The cells were treated with a concentration range from 0.78 μM to 50 μM, and the response was measured over a 6-h period. This facilitated the evaluation of whether there was a time and/or concentration dependent response from the cells. Hydrogen peroxide (H2O2) was used as a positive control. ROS production is presented as fold-change compared to the negative control.

Molecule: O=C([O-])CCCCCCC(=O)[O-].[Cu+2].c1cnc2c(c1)ccc1cccnc12.c1cnc2c(c1)ccc1cccnc12 [Complex 2, [Cu(oda)(phen)2]]
- Expression of caspase-3/7 (% cells) [1]: highest expression of caspase-3/7

Molecule: O=C([O-])CCCCCCCCCC(=O)[O-].[Ag+].[Ag+].c1cnc2c(c1)ccc1cccnc12.c1cnc2c(c1)ccc1cccnc12.c1cnc2c(c1)ccc1cccnc12 [Complex 5, [Ag2(udda)(phen)3]]
- Necrotic population (% cells) (MCF-7 cells): significant population

Molecule: {[Mn2(oda)3(phen)4]^2−[Mn2(oda)(phen)4 (H2O)2]^2+} [Complex 7]
- Necrotic population (% cells) (MCF-7 cells): necrotic population also observed
- Expression of caspase-3/7 (% cells) [1]: lowest expression levels of the three complexes
- ROS production (MCF-12A cells): markedly elevated production of ROS
